Data published in US20120309739A1, “AKT / PKB INHIBITORS” (ALMAC DISCOVERY LIMITED, priority 2009, published 2012).
pIC50: −log10 of the molar value. Where a name gives a salt, the structure may show the parent alone.

Key:
Assay type in all cases: biochemical
AKT1 = molecular target: T1, AKT1 (Homo sapiens, UniProt P31749); assay: AKT Kinase Assay (IMAP fluorescent polarisation) vs AKT1; conditions: activated AKT1, FAM Crosstide substrate
T1 construct: purchased SignalChem
How it was run: (§1)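 IMAP fluorescence-polarisation read-out (485/528 nm) of 5′FAM-Crosstide phosphorylation; IC50 fitted by non-linear regression from % inhibition against vehicle. Fourteen-point half-log compound dilutions sat 45 min at room temperature with activated isoform at linear-range amount. ATP and substrate followed for 1 h, then a 1 h binding-reagent stop.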

AKT2 = molecular target: T2, AKT2 (Homo sapiens, UniProt P31751); assay: AKT Kinase Assay (IMAP fluorescent polarisation) vs AKT2; conditions: activated AKT2, FAM Crosstide substrate
T2 construct: purchased SignalChem
How it was run: as §1

AKT3 = molecular target: T3, AKT3 (Homo sapiens, UniProt Q9Y243); assay: AKT Kinase Assay (IMAP fluorescent polarisation) vs AKT3; conditions: activated AKT3, FAM Crosstide substrate
T3 construct: purchased SignalChem
How it was run: as §1

T2 sequence (P31751 whole entry): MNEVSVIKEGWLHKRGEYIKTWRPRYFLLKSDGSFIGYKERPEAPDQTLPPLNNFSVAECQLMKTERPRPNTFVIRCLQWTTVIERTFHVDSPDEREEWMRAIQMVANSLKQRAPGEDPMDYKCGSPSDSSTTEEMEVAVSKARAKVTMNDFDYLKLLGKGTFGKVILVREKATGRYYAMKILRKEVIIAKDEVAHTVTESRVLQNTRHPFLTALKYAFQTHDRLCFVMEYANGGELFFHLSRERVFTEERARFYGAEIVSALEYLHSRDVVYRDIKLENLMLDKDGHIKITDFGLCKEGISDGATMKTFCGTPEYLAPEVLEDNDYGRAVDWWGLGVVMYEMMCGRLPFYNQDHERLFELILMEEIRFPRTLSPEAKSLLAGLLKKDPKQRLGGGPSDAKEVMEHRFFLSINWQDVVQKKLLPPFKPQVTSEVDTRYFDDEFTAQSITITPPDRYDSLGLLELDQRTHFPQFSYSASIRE
T3 sequence (Q9Y243 whole entry): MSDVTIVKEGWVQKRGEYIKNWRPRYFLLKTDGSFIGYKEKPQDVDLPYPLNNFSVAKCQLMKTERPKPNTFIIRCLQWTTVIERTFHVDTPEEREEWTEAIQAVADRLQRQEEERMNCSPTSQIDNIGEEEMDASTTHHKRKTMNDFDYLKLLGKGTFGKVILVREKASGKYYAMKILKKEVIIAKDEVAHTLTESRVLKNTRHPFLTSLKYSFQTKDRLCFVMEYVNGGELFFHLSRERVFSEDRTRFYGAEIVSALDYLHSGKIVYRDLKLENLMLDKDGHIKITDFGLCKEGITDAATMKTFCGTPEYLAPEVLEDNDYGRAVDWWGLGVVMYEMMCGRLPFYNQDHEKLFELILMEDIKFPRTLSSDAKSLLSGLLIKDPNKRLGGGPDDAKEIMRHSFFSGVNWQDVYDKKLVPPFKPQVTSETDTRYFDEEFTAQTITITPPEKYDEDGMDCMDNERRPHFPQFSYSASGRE
T1 sequence (P31749 whole entry): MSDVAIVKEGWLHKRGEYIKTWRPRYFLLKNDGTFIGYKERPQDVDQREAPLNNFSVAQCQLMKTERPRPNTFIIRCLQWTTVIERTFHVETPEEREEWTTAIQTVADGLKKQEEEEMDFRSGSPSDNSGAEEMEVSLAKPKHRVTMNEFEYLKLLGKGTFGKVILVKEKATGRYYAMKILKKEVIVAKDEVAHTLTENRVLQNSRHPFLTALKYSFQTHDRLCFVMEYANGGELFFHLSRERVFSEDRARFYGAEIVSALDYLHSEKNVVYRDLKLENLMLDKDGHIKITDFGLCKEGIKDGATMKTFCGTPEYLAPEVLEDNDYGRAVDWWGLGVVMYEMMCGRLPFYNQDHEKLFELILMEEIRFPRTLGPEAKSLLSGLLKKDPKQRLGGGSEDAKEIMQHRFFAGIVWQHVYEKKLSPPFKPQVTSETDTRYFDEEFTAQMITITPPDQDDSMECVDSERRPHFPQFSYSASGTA

C#Cc1cnc2oc(-c3ccc(C4(N)CCC4)cc3)c(-c3ccccc3)c2n1 [Example 146, 1-(4-(2-Ethynyl-7-phenylfuro[2,3-b]pyrazin-6-yl)phenyl)cyclobutanamine]
pIC50 (AKT1): 5.00 to 6.00
pIC50 (AKT2): 5.00 to 6.00
pIC50 (AKT3): < 5.00

NC1(c2ccc(-c3oc4ncc(-c5ccccc5)nc4c3-c3ccccc3)cc2)CCC1 [Example 139, 1-(4-(2,7-Diphenylfuro[2,3-b]pyrazin-6-yl)phenyl)cyclobutanamine, HCl]
pIC50 (AKT1): 5.00 to 6.00
pIC50 (AKT2): 5.00 to 6.00
pIC50 (AKT3): 5.00 to 6.00

COc1nc(N)nc2oc(-c3ccc(C4(N)CCC4)cc3)c(-c3ccccc3)c12 [Example 31, 6-(4-(1-Aminocyclobutyl)phenyl)-4-methoxy-5-phenylfuro[2,3-d]pyrimidin-2-amine]
pIC50 (AKT1): ≥ 7.00
pIC50 (AKT2): 6.00 to 7.00
pIC50 (AKT3): < 5.00

Cn1c(N2CC(O)C2)nc2oc(-c3ccc(C4(N)CCC4)cc3)c(-c3ccccc3)c2c1=O [Example 61, 6-(4-(1-Aminocyclobutyl)phenyl)-2-(3-hydroxyazetidin-1-yl)-3-methyl-5-phenylfuro[2,3-d]pyrimidin-4(3H)-one]
pIC50 (AKT1): 6.00 to 7.00
pIC50 (AKT2): 6.00 to 7.00
pIC50 (AKT3): 5.00 to 6.00

NC1(c2ccc(-c3oc4nc(NCCO)n(CCF)c(=O)c4c3-c3ccccc3)cc2)CCC1 [Example 110, 6-(4-(1-Aminocyclobutyl)phenyl)-3-(2-fluoroethyl)-2-(2-hydroxyethylamino)-5-phenylfuro[2,3-d]pyrimidin-4(3H)-one]
pIC50 (AKT1): 5.00 to 6.00
pIC50 (AKT2): ≥ 7.00
pIC50 (AKT3): 5.00 to 6.00

Cn1cc(-c2cncnc2)c2oc(-c3ccc(C4(N)CCC4)cc3)c(-c3ccccc3)c2c1=O [Example 115, 2-(4-(1-Aminocyclobutyl)phenyl)-5-methyl-3-phenyl-7-(pyrimidin-5-yl)furo[3,2-c]pyridin-4(5H)-one]
pIC50 (AKT1): 6.00 to 7.00
pIC50 (AKT2): 5.00 to 6.00
pIC50 (AKT3): < 5.00

CNc1nc(SC)nc2oc(-c3ccc(C4(N)CCC4)cc3)c(-c3ccccc3)c12 [Example 68, 6-(4-(1-Aminocyclobutyl)phenyl)-N-methyl-2-(methylthio)-5-phenylfuro[2,3-d]pyrimidin-4-amine, HCl]
pIC50 (AKT1): 6.00 to 7.00
pIC50 (AKT2): 6.00 to 7.00
pIC50 (AKT3): 6.00 to 7.00

CNC(=O)CNc1nc2oc(-c3ccc(C4(N)CCC4)cc3)c(-c3ccccc3)c2c(=O)n1C [Example 60, 2-((6-(4-(1-Aminocyclobutyl)phenyl)-3-methyl-4-oxo-5-phenyl-3,4-dihydrofuro[2,3-d]pyrimidin-2-yl)amino)-N-methylacetamide hydrochloride]
pIC50 (AKT1): 5.00 to 6.00
pIC50 (AKT2): 6.00 to 7.00
pIC50 (AKT3): < 5.00

NC1(c2ccc(-c3oc4ccnc(-c5cn[nH]c5)c4c3-c3ccccc3)cc2)CCC1 [Example 133, 1-(4-(3-Phenyl-4-(1H-pyrazol-4-yl)furo[3,2-c]pyridin-2-yl)phenyl)cyclobutanamine]
pIC50 (AKT1): 5.00 to 6.00
pIC50 (AKT2): 5.00 to 6.00
pIC50 (AKT3): < 5.00

NC1(c2ccc(-c3oc4c(=O)n(CCCO)ccc4c3-c3ccccc3)cc2)CCC1 [Example 131, 2-(4-(1-Aminocyclobutyl)phenyl)-6-(3-hydroxypropyl)-3-phenylfuro[2,3-c]pyridin-7(6H)-one]
pIC50 (AKT1): 5.00 to 6.00
pIC50 (AKT2): 6.00 to 7.00
pIC50 (AKT3): 5.00 to 6.00

COc1nc(N2CC(CN)C2)nc2oc(-c3ccc(C4(N)CCC4)cc3)c(-c3ccccc3)c12 [Example 27, 1-(4-(2-(3-(Aminomethyl)azetidin-1-yl)-4-methoxy-5-phenylfuro[2,3-d]pyrimidin-6-yl)phenyl)cyclobutanamine]
pIC50 (AKT1): 6.00 to 7.00
pIC50 (AKT2): 6.00 to 7.00
pIC50 (AKT3): 5.00 to 6.00

Cn1c(N2CCOCC2)nc2oc(-c3ccc(C4(N)CCC4)cc3)c(-c3ccccc3)c2c1=O [Example 82, 6-(4-(1-Aminocyclobutyl)phenyl)-3-methyl-2-morpholino-5-phenylfuro[2,3-d]pyrimidin-4(3H)-one]
pIC50 (AKT1): 6.00 to 7.00
pIC50 (AKT2): 5.00 to 6.00
pIC50 (AKT3): 5.00 to 6.00

Cc1nc2oc(-c3ccc(C4(N)CCC4)cc3)c(-c3ccccc3)c2c(=O)n1C [Example 87, 6-(4-(1-Aminocyclobutyl)phenyl)-2,3-dimethyl-5-phenylfuro[2,3-d]pyrimidin-4(3H)-one]
pIC50 (AKT1): 6.00 to 7.00
pIC50 (AKT2): 6.00 to 7.00
pIC50 (AKT3): 5.00 to 6.00

NC1(c2ccc(-c3oc4nc(NCCO)nc(OCCF)c4c3-c3ccccc3)cc2)CCC1 [Example 111, 2-((6-(4-(1-Aminocyclobutyl)phenyl)-4-(2-fluoroethoxy)-5-phenylfuro[2,3-d]pyrimidin-2-yl)amino)ethanol]
pIC50 (AKT1): ≥ 7.00
pIC50 (AKT2): 6.00 to 7.00
pIC50 (AKT3): 5.00 to 6.00

COc1nccc2oc(-c3ccc(C4(N)CCC4)cc3)c(-c3ccccc3)c12 [Example 17, 1-(4-(4-Methoxy-3-phenylfuro[3,2-c]pyridin-2-yl)phenyl)cyclobutanamine]
pIC50 (AKT1): 5.00 to 6.00
pIC50 (AKT2): 5.00 to 6.00
pIC50 (AKT3): < 5.00

Cn1c(N2CC[C@H](O)C2)nc2oc(-c3ccc(C4(N)CCC4)cc3)c(-c3ccccc3)c2c1=O [Example 56, (S)-6-(4-(1-aminocyclobutyl)phenyl)-2-(3-hydroxypyrrolidin-1-yl)-3-methyl-5-phenylfuro[2,3-d]pyrimidin-4(3H)-one]
pIC50 (AKT1): 6.00 to 7.00
pIC50 (AKT2): ≥ 7.00
pIC50 (AKT3): 5.00 to 6.00

Cc1nc(NCCO)nc2oc(-c3ccc(C4(N)CCC4)cc3)c(-c3ccccc3)c12 [Example 72, 2-((6-(4-(1-Aminocyclobutyl)phenyl)-4-methyl-5-phenylfuro[2,3-d]pyrimidin-2-yl)amino)ethanol]
pIC50 (AKT1): 6.00 to 7.00
pIC50 (AKT2): 6.00 to 7.00
pIC50 (AKT3): 5.00 to 6.00

Cn1c(N2CC[C@@H](O)C2)nc2oc(-c3ccc(C4(N)CCC4)cc3)c(-c3ccccc3)c2c1=O [Example 57, (R)-6-(4-(1-Aminocyclobutyl)phenyl)-2-(3-hydroxypyrrolidin-1-yl)-3-methyl-5-phenylfuro[2,3-d]pyrimidin-4(3H)-one]
pIC50 (AKT1): 6.00 to 7.00
pIC50 (AKT2): ≥ 7.00
pIC50 (AKT3): 5.00 to 6.00

CCn1c(NCCO)nc2oc(-c3ccc(C4(N)CCC4)cc3)c(-c3ccccc3)c2c1=O [Example 93, 6-(4-(1-Aminocyclobutyl)phenyl)-3-ethyl-2-((2-hydroxyethyl)amino)-5-phenylfuro[2,3-d]pyrimidin-4(3H)-one]
pIC50 (AKT1): 5.00 to 6.00
pIC50 (AKT2): ≥ 7.00
pIC50 (AKT3): 5.00 to 6.00

Cn1c(N2CCNC(=O)C2)nc2oc(-c3ccc(C4(N)CCC4)cc3)c(-c3ccccc3)c2c1=O [Example 99, 6-(4-(1-Aminocyclobutyl)phenyl)-3-methyl-2-(3-oxopiperazin-1-yl)-5-phenylfuro[2,3-d]pyrimidin-4(3H)-one]
pIC50 (AKT1): 5.00 to 6.00
pIC50 (AKT2): ≥ 7.00
pIC50 (AKT3): 5.00 to 6.00

COc1nc(N2CC[C@H](O)C2)nc2oc(-c3ccc(C4(N)CCC4)cc3)c(-c3ccccc3)c12 [Example 35, (S)-1-(6-(4-(1-Aminocyclobutyl)phenyl)-4-methoxy-5-phenylfuro[2,3-d]pyrimidin-2-yl)pyrrolidin-3-ol]
pIC50 (AKT1): 6.00 to 7.00
pIC50 (AKT2): 6.00 to 7.00
pIC50 (AKT3): 5.00 to 6.00

NC1(c2ccc(-c3oc4cnccc4c3-c3ccccc3)cc2)CCC1 [Example 2, 1-(4-(3-Phenylfuro[2,3-c]pyridin-2-yl)phenyl)cyclobutanamine]
pIC50 (AKT1): < 5.00
pIC50 (AKT2): 5.00 to 6.00
pIC50 (AKT3): < 5.00

NC1(c2ccc(-c3oc4cc[nH]c(=O)c4c3-c3ccccc3)cc2)CCC1 [Example 18, 2-(4-(1-Aminocyclobutyl)phenyl)-3-phenylfuro[3,2-c]pyridin-4(5H)-one]
pIC50 (AKT1): 6.00 to 7.00
pIC50 (AKT2): 5.00 to 6.00
pIC50 (AKT3): < 5.00

CNc1nc(OCCF)c2c(-c3ccccc3)c(-c3ccc(C4(N)CCC4)cc3)oc2n1 [Example 89, 6-(4-(1-Aminocyclobutyl)phenyl)-4-(2-fluoroethoxy)-N-methyl-5-phenylfuro[2,3-d]pyrimidin-2-amine, HCl]
pIC50 (AKT1): 6.00 to 7.00
pIC50 (AKT2): 6.00 to 7.00
pIC50 (AKT3): 5.00 to 6.00

Cn1c(N2CCCC2)nc2oc(-c3ccc(C4(N)CCC4)cc3)c(-c3ccccc3)c2c1=O [Example 58, 6-(4-(1-Aminocyclobutyl)phenyl)-3-methyl-5-phenyl-2-(pyrrolidin-1-yl)furo[2,3-d]pyrimidin-4(3H)-one hydrochloride]
pIC50 (AKT1): 6.00 to 7.00
pIC50 (AKT2): 6.00 to 7.00
pIC50 (AKT3): 5.00 to 6.00

NC1(c2ccc(-c3oc4ncc(-c5cn[nH]c5)nc4c3-c3ccccc3)cc2)CCC1 [Example 135, 1-(4-(7-Phenyl-2-(1H-pyrazol-4-yl)furo[2,3-b]pyrazin-6-yl)phenyl)cyclobutanamine]
pIC50 (AKT1): 6.00 to 7.00
pIC50 (AKT2): 6.00 to 7.00
pIC50 (AKT3): 6.00 to 7.00

COCCn1cnc2oc(-c3ccc(C4(N)CCC4)cc3)c(-c3ccccc3)c2c1=O [Example 105, 6-(4-(1-Aminocyclobutyl)phenyl)-3-(2-methoxyethyl)-5-phenylfuro[2,3-d]pyrimidin-4(3H)-one, HCl]
pIC50 (AKT1): 5.00 to 6.00
pIC50 (AKT2): 6.00 to 7.00
pIC50 (AKT3): 5.00 to 6.00

NC1(c2ccc(-c3oc4ncc(-c5ccccn5)nc4c3-c3ccccc3)cc2)CCC1 [Example 141, 1-(4-(7-Phenyl-2-(pyridin-2-yl)furo[2,3-b]pyrazin-6-yl)phenyl)cyclobutanamine]
pIC50 (AKT1): 5.00 to 6.00
pIC50 (AKT2): 5.00 to 6.00
pIC50 (AKT3): < 5.00

COCCn1c(SC)nc2oc(-c3ccc(C4(N)CCC4)cc3)c(-c3ccccc3)c2c1=O [Example 67, 6-(4-(1-Aminocyclobutyl)phenyl)-3-(2-methoxyethyl)-2-(methylthio)-5-phenylfuro[2,3-d]pyrimidin-4(3H)-one, HCl]
pIC50 (AKT1): 6.00 to 7.00
pIC50 (AKT2): ≥ 7.00
pIC50 (AKT3): 6.00 to 7.00

Cn1c(NCC(N)=O)nc2oc(-c3ccc(C4(N)CCC4)cc3)c(-c3ccccc3)c2c1=O [Example 63, 2-((6-(4-(1-Aminocyclobutyl)phenyl)-3-methyl-4-oxo-5-phenyl-3,4-dihydrofuro[2,3-d]pyrimidin-2-yl)amino)acetamide]
pIC50 (AKT1): 6.00 to 7.00
pIC50 (AKT2): 6.00 to 7.00
pIC50 (AKT3): < 5.00
